Laboratory results as given in patent US8604001B2, “Use of sulfated oligosaccharides as slimming cosmetic ingredients” (priority 2007, dated 2013).

Columns and labels:
normal human adipocytes [1] = test: Inhibition of lipogenesis ([2-14C] acetate incorporation into lipids) in suspensions of human adipocytes; type: cell-based; conditions: 1 mM; for cpm (radioactivity of extracted lipids): 1 h preincubation, 4 h with [2-14C] acetate, control 472253
Description: The ex vivo inhibition of lipogenesis was evaluated in suspensions of human adipocytes which were isolated from a sampling taken during an abdominal plasty performed on a person. The adipocytes suspension was incubated for one hour at 37° C. with 3 or 5% of a solution of sulfated oligosaccharides prepared according to example 1 (hydrolysis time: 16 hours), or with a standard study solution (1 mM theophylline or caffeine), on in the absence of these solutions (control). Each assay was done in triplicate. A radioactive marker [2-^14C] acetate was then added to the various assays at a concentration of 2.5 μCi/mL. After 4 hours of incubation at 37° C., the lipids were extracted by a methanol/chloroform/water mixture and then dehydrated. The radioactivity, expressed in counts per minute (cpm), is then quantified through liquid scintigraphy (LKB 1210 Rackbeta). The statistical analysis was performed according to the Dunnett's multiple comparison test.

normal human adipocytes [2] = test: Stimulation of lipolysis (Non-Esterified Fatty Acids released) in suspensions of human adipocytes; type: cell-based; conditions: 1 mM; for NEFA: 2 hours at 37° C., control 96
Description: The lipolysis stimulation activity was evaluated in suspensions of human adipocytes isolated from a sample taken during an abdominal plasty performed on a person. The adipocytes suspension was incubated, for 2 hours at 37° C. with 3 or 5% of a solution of sulfated oligosaccharides prepared according to example 1 (16 hours of, hydrolysis time) in percentage of total weight of the culture, or with standard study solutions (1 mM theophylline or caffeine) or in the absence of solutions (control). Each assay was performed 6 times. At the end of the incubation period, the Non-Esterified Fatty Acids (NEFA) which were; present in the incubation mediums were measured with commercially available dosage kits (OXOID 46 551).

[3] = test system: thighs of healthy volunteers; test: Slimming effect of hydro-alcohol gels: thigh circumference measured in centimeters over 8 weeks; conditions: for change of thigh circumference versus T0: hydro-alcohol gel applied twice a day, 25 volunteers

## Cn1c(=O)c2c(ncn2C)n(C)c1=O [Caffeine, caffeine]
Normal human adipocytes [1]
  % Control (lipogenesis): 4%
  cpm (radioactivity of extracted lipids): 20741 cpm
Normal human adipocytes [2]
  % Control (lipolysis, NEFA): 547%
  NEFA: 525 µM
[3]; 14 days
  change of thigh circumference versus T0: 0 cm
[3]; 28 days
  change of thigh circumference versus T0: −0.1 cm
[3]; 56 days, gel applied twice a day
  average decrease of the circumference of the thigh: 0.3 cm
[3]; 56 days
  change of thigh circumference versus T0: −0.3 cm
[3]; after 14 treatment days
  slimming effect (in words): no slimming effect

## Cn1c(=O)c2[nH]cnc2n(C)c1=O [Theophylline, theophylline]
Normal human adipocytes [1]
  % Control (lipogenesis): 6%
  cpm (radioactivity of extracted lipids): 27225 cpm
Normal human adipocytes [2]
  % Control (lipolysis, NEFA): 560%
  NEFA: 537 µM
